Results reported in patent US5491135A (priority 1993, dated 1996).
≈ marks a conversion by molar mass, not a printed value. Where “and” joins values, the source holds several entries; their conditions need not be identical. Equal values may be shown once. Entries after “also recorded” stand apart in the source; their conditions may differ. Read-outs that look alike come from different tables or passages of the source.

Assays:
simian varicella virus = experiment: Simian varicella virus infection in African green monkeys; assay type: in vivo, African green monkey
Description: Fifteen African green monkeys were weighed and bled for clinical chemistry hematology baselines. […] Each of the 15 monkeys were infected with simian varicella virus by intratracheal inoculation of 3.7×10^4 plaque forming units (PFU) of simian varicella virus. […] Control monkeys, service as infection controls, received twice daily intravenous injections of phosphate buffered saline administered at 1.0 ml/kg of body weight. A second group of three monkeys received PALA at 50 mg/kg/day given by intravenous bolus injection into the saphenous vein. A third group was given a lower dose of PALA at 20 mg/kg/day administered in a similar manner. Acyclovir treatment was administered at a subeffective dose of 10 mg/kg/day also given as intravenous bolus injection into the saphenous vein. A fifth group of three monkeys received a combined treatment of PALA at 20 mg/kg/day and acyclovir at 10 mg/kg/day. The drugs were injected into opposite veins at each time of treatment.
Drug solutions were prepared daily prior to treatment. Treatment was begun 24 hours after virus inoculation. PALA was provided as a solution in vials containing 5 ml at 100 mg/ml. The contents of three vials were pooled and seven ml of the pooled drug diluted to 28 ml to give 25 mg/ml. Five ml of this solution was diluted to […] to give 10 mg/ml. Drug was administered twice daily resulting in total daily doses of 50 or 20 mg/kg/day.
Acyclovir received as a gift from Burroughs Wellcome was weighed out as a 200 mg quantity. This was diluted with 5 ml of PBS and pH adjusted to 11.0 with 1N NaOH to effect solution. This was subsequently diluted to 40 ml to give a solution of 5 mg/ml and sterilized by filtration. Again, 1 ml per kg of body weight was administered by intravenous injection twice daily resulting in a dose of 10 mg/kg/day.
The clinical course of simian varicella infection was followed by collection of 2 ml of blood in heparin on day 2, 5, 7, 9 and 11 post-inoculation. The lymphocytes in the 2 ml specimen were separated on ficol-hypaque gradients, washed twice in RPMI-1640 medium and suspended in 10 ml of this medium. The 10 ml volume was divided between two 25 cm^2 tissue culture flasks seeded 24 hours earlier with Vero cells. After 5-7 days incubation, the culture fluids were discarded from the flasks and the cell monolayer fixed with methanol and stained with methylene blue-basic fuchsin. When dried the number of plaques in each flask were counted and the mean number of plaques between the two paired flasks were determined and expressed as a quantitation of viremia per ml of blood.
Rash was evaluated daily using a subjective scoring of severity from ± to 4+. A ± score indicates less than 10 vesicles seen on the skin of the monkey while 4+ indicates numerous vesicles covering the majority of the body surface. General clinical condition was assessed daily and anorexia noted by counting the number of food biscuits consumed daily. Monkeys dying during the course of the experiment were necropsied and simian varicella was determined as the cause of death based on the typical pathology. Baseline hematology and clinical chemistry tests were performed at three days before virus inoculation and again on day 0, immediately before virus inoculation. Following inoculation of simian varicella virus blood was taken for hematology and clinical chemistry tests at 3, 7, 9 and 11 days.
At 14 and 21 days after virus inoculation, blood was taken and the serum separated for quantitation of antibody. Antibody titers were obtained in a serum neutralization test employing a plaque reduction assay. The antibody titer expressed is the dilution of serum resulting in an 80 percent reduction in the number of plaques from that number occurring in control cultures without added serum.

clinical HCMV isolate = assay type: cell-based
Yellow fever virus = experiment: microbe, parasite or virus in culture; conditions: Vero
HCMV strain AD 169 = experiment: Rabbit HCMV ascending dose efficacy and time course recovery (Example 7); conditions: for Vitreo-retinal score: sum of both eyes
[1] = day 3, PALA 75 mg/kg/d, with or without steroid
[2] = day 3, PALA 50 or DHPG 10 mg/kg/d
[3] = day 4, PALA 75 mg/kg/d, with or without steroid

O=C(O)C[C@H](NC(=O)CP(=O)(O)O)C(=O)O [PALA]
death (simian varicella virus; PALA 20 mg/kg/day i.v.): died later that same day
death (simian varicella virus; PALA 50 mg/kg/day i.v.): died on day 10
thrombocytopenia on day 11 (simian varicella virus; PALA 50 or Acyclovir 10 mg/kg/day): one monkey
Viremia, Mean PFU (simian varicella virus; day 5, PALA 50 mg/kg/d i.v.): 136 PFU and 154 PFU and 148 PFU
Severity of Rash (simian varicella virus; day 13, PALA 50 mg/kg/d i.v.): 4+
Severity of Rash (simian varicella virus; day 14, PALA 50 mg/kg/d i.v.): 4+
immunosuppression (simian varicella virus; high concentrations): Some concentration dependent immunosuppression was noted at high concentrations
reduction of HCMV titer (clinical HCMV isolate): effective in reducing the titer
log reduction at 10 µg/mL (clinical HCMV isolate; Human betaherpesvirus 5, Hs68, read-out: viral yield reduction): 2 to 3
Cell associated HCMV titer (clinical HCMV isolate; day 0 PI): 10^2 PFU/ml
Cell free (supernatant) HCMV titer (clinical HCMV isolate; day 0 PI): 10^5 PFU/ml
Cell associated HCMV titer (clinical HCMV isolate; day 1 PI): 10^3 PFU/ml
Cell free (supernatant) HCMV titer (clinical HCMV isolate; day 1 PI): 10^2 PFU/ml
Cell associated HCMV titer (clinical HCMV isolate; day 2 PI): 10^2 PFU/ml
Cell free (supernatant) HCMV titer (clinical HCMV isolate; day 2 PI): 10^1 PFU/ml
Cell associated HCMV titer (clinical HCMV isolate; day 3 PI): 10^1 PFU/ml
Cell free (supernatant) HCMV titer (clinical HCMV isolate; day 3 PI): 10^2 PFU/ml
Cell associated HCMV titer (clinical HCMV isolate; day 4 PI): 10^1 PFU/ml
Cell free (supernatant) HCMV titer (clinical HCMV isolate; day 4 PI): 10^1 PFU/ml
Cell associated HCMV titer (clinical HCMV isolate; day 5 PI): 0 PFU/ml
Cell free (supernatant) HCMV titer (clinical HCMV isolate; day 5 PI): 10^1 PFU/ml
Cell associated HCMV titer (clinical HCMV isolate; day 6 PI): 10^1 PFU/ml
Cell associated HCMV titer (clinical HCMV isolate; day 7 PI): 10^1 PFU/ml
IC50 (Yellow fever virus): 16.6 µg/mL (≈ 65.1 µM)
HCMV recovery vs placebo (HCMV strain AD 169; PALA 75 mg/kg/day): comparable to placebo therapy
clinical disease / efficacy (HCMV strain AD 169; PALA 75 mg/kg/day i.v., with or without steroid): vitreitis increased through day 6 post inoculation; also recorded: not improved when compared to the 50 mg/kg/day PALA dose or to the 10 mg/kg/day DHPG dose
HCMV recovery vs placebo (HCMV strain AD 169; PALA 100 mg/kg/day): significantly higher than HCMV recovery in placebo treated animals
clinical disease / efficacy (HCMV strain AD 169; PALA 100 mg/kg/day i.v.): Both the vitreitis and optic nerve head disease severity were increased compared to other single-agent PALA, DHPG and placebo therapies; also recorded: not effective in reducing the clinical disease progression or HCMV recovery
toxicity (HCMV strain AD 169; PALA 100 mg/kg/day i.v.): toxic to the animals; also recorded: animal died prior
clinical disease / efficacy (HCMV strain AD 169; PALA 50 or DHPG 10 mg/kg/day i.v.): vitreitis increased through day 6 post inoculation; also recorded: optic nerve head pathology peaked on day 4 after inoculation and decreased to low levels
HCMV Recovered, OD (HCMV strain AD 169; [1]): +
HCMV Recovered, OS (HCMV strain AD 169; [1]): +
HCMV Titer, OD (HCMV strain AD 169; [1]): 10^5 pfu and 10^4 pfu
HCMV Titer, OS (HCMV strain AD 169; [1]): 10^4 pfu
HCMV recovery frequency (HCMV strain AD 169; [1]): 4/4
Optic neuritis score (ONH) (HCMV strain AD 169; [1]): 2.0
Vitreo-retinal score (HCMV strain AD 169; [1]): 2.25 and 1.5
Average HCMV titer (HCMV strain AD 169; day 3, PALA 100 mg/kg/d): 10^4 pfu
HCMV Recovered, OD (HCMV strain AD 169; day 3, PALA 100 mg/kg/d): +
HCMV Recovered, OS (HCMV strain AD 169; day 3, PALA 100 mg/kg/d): +
HCMV Titer, OD (HCMV strain AD 169; day 3, PALA 100 mg/kg/d): 10^4 pfu
HCMV Titer, OS (HCMV strain AD 169; day 3, PALA 100 mg/kg/d): 10^3 pfu
HCMV recovery frequency (HCMV strain AD 169; day 3, PALA 100 mg/kg/d): 4/4
Optic neuritis score (ONH) (HCMV strain AD 169; day 3, PALA 100 mg/kg/d): 2.0 and 3.0
Vitreo-retinal score (HCMV strain AD 169; day 3, PALA 100 mg/kg/d): 1.0 and 0.75
HCMV Recovered, OD (HCMV strain AD 169; [2]): +
HCMV Recovered, OS (HCMV strain AD 169; [2]): +
HCMV Titer, OD (HCMV strain AD 169; [2]): 10^3 pfu and 10^4 pfu
HCMV Titer, OS (HCMV strain AD 169; [2]): 10^4 pfu and 10^3 pfu
HCMV recovery frequency (HCMV strain AD 169; [2]): 4/4
Optic neuritis score (ONH) (HCMV strain AD 169; [2]): 2.0
Vitreo-retinal score (HCMV strain AD 169; [2]): 1.0 and 1.5
HCMV Recovered, OD (HCMV strain AD 169; [3]): +
HCMV Recovered, OS (HCMV strain AD 169; [3]): + and -
HCMV Titer, OD (HCMV strain AD 169; [3]): 10^4 pfu
HCMV Titer, OS (HCMV strain AD 169; [3]): 10^3 pfu
HCMV recovery frequency (HCMV strain AD 169; [3]): 3/4
Optic neuritis score (ONH) (HCMV strain AD 169; [3]): 4.0 and 5.0
Vitreo-retinal score (HCMV strain AD 169; [3]): 2.75 and 3.5
Average HCMV titer (HCMV strain AD 169; day 4, PALA 100 mg/kg/d): 10^3 pfu
HCMV Recovered, OD (HCMV strain AD 169; day 4, PALA 100 mg/kg/d): +
HCMV Recovered, OS (HCMV strain AD 169; day 4, PALA 100 mg/kg/d): +
HCMV Titer, OD (HCMV strain AD 169; day 4, PALA 100 mg/kg/d): 10^5 pfu and 10^3 pfu
HCMV Titer, OS (HCMV strain AD 169; day 4, PALA 100 mg/kg/d): 10^3 pfu and 10^4 pfu
